Results reported in patent publication US20050256037A1, “Antibacterial amide macrocyles” (Bayer HealthCare AG, priority 2003, published 2005).
pIC50: −log10 of the molar value. Converted amounts (≈) assume the structure as drawn. Counter-ions that a name gives are not always drawn.

Key:
[1] = system: S. aureus 133; experiment: Systemic infection with S. aureus 133 (mouse sepsis model); assay type: in vivo; details: female CFW1 mice, i.p. infection, i.v. therapy 30 minutes after infection, survival recorded for 6 days
Method: Systemic Infection with S. aureus 133
For this purpose, S. aureus 133 cells are cultured overnight in BH broth (Oxoid, Germany). The overnight culture was diluted 1:100 in fresh BH broth and expanded for 3 hours. The bacteria which are in the logarithmic phase of growth are centrifuged and washed twice with buffered physiological saline solution. A cell suspension in saline solution with an extinction of 50 units is then adjusted in a photometer (Dr Lange LP 2W). After a dilution step (1:15), this suspension is mixed 1:1 with a 10% strength mucine suspension. 0.2 ml of this infection solution is administered i.p. per 20 g of mouse. This corresponds to a cell count of about 1-2×10 microbes/mouse. The i.v. therapy takes place 30 minutes after the infection. Female CFW1 mice are used for the infection test. The survival of the animals is recorded for 6 days. The animal model is adjusted so that untreated animals die within 24 h after the infection.

[2] = system: S. aureus T17; experiment: MIC, liquid dilution test in minimal medium (96-well microtitre plate); assay type: cell-based
Method: (§1) Determination of the Minimum Inhibitory Concentration (MIC)
(§2) The minimum inhibitory concentration (MIC) is the minimum concentration of an antibiotic with which the growth of a test microbe is inhibited over 18-24 h. The inhibitor concentration can in these cases be determined by standard microbiological methods (see, for example, The National Committee for Clinical Laboratory Standards. Methods for dilution antimicrobial susceptibility tests for bacteria that grow aerobically; approved standard-fifth edition. NCCLS document M7-A5 [ISBN 1-56238-394-9]. NCCLS, 940 West Valley Road, Suite 1400, Wayne, Pa. 19087-1898 USA, 2000). The MIC of the compounds of the invention is determined in the liquid dilution test on the 96-well microtitre plate scale. The bacterial microbes are cultivated in a minimal medium (18.5 mM Na2HPO4, 5.7 mM KH2PO4, 9.3 mM NH4Cl, 2.8 mM MgSO4, 17.1 mM NaCl, 0.033 μg/ml thiamine hydrochloride, 1.2 μg/ml nicotinic acid, 0.003 μg/ml biotin, 1% glucose, 25 μg/ml of each proteinogenic amino acid with the exception of phenylalanine; [H.-P. Kroll; unpublished]) with addition of 0.4% BH broth (test medium). In the case of Enterococcus faecium L4001, heat-inactivated fetal calf serum (FCS; GibcoBRL, Germany) is added to the test medium in a final concentration of 10%. Overnight cultures of the test microbes are diluted to an OD578 of 0.001 (to 0.01 in the case of enterococci) in fresh test medium, and incubated 1:1 with dilutions of the test substances (1:2 dilution steps) in test medium (200 μl final volume). The cultures are incubated at 37° C. for 18-24 hours; enterococci in the presence of 5% CO2.
(§3) The lowest substance concentration in each case at which bacterial growth was no longer visible is defined as the MIC. […] The compounds show a graded antibacterial effect against most of the test microbes.
The S. aureus strain T17 is isolated in vivo. CFW1 mice are infected intraperitoneally with 4×10^7 S. aureus 133 cells per mouse. 0.5 h after the infection, the animals are treated intravenously with 50 mg/kg biphenomycin B. The kidneys are removed from the surviving animals on day 3 after the infection. After homogenization of the organs, the homogenates are plated out as described for RN4220Bi^R on antibiotic-free and antibiotic-containing agar plates and incubated at 37° C. overnight. […] About 20 of these colonies are tested for the biphenomycin B MIC, and a colony with an MIC of >50 μM is selected for further cultivation, and the strain is referred to a T17.

[3] = target: S. aureus 133 Translation; experiment: S. aureus in vitro transcription-translation assay (S30 extract, firefly luciferase reporter); assay type: biochemical
Source text: In vitro Transcription-Translation with S. aureus Extracts
Construction of an S. aureus Luciferase Reporter Plasmid
A reporter plasmid which can be used in an in vitro transcription-translation assay from S. aureus is constructed by using the plasmid pBESTluc (Promega Corporation, USA). The E. coli tac promoter present in this plasmid in front of the firefly luciferase is replaced by the capA1 promoter with appropriate Shine-Dalgarno sequence from S. aureus. The primers CAPFor 5′-CGGCCAAGCTTACTCGGAT-[…] […]-3′ and CAPRev 5′-[…]-3′ are used for this. The primer CAPFor contains the capA1 promoter, the ribosome binding site and the 5′ region of the luciferase gene. After PCR using pBESTluc as template it is possible to isolate a PCR product which contains the firefly luciferase gene with the fused capA1 promoter. This is, after restriction with ClaI and HindIII, ligated into the vector pBESTluc which has likewise been digested with ClaI and HindIII. The resulting plasmid pla is able to replicate in E. coli and be used as template in the S. aureus in vitro transcription-traslation assay.
Preparation of S30 Extracts from S. aureus
Six litres of BHI medium are inoculated with a 250 ml overnight culture of an S. aureus strain and allowed to grow at 37° C. until the OD600 run is 2-4. The cells are harvested by centrifugation and washed in 500 ml of cold buffer A (10 mM Tris acetate, pH 8.0, 14 mM Magnesium acetate, 1 mM DTT, 1 M KCl). After renewed centrifugation, the cells are washed in 250 ml of cold buffer A with 50 mM KCl, and the resulting pellets are frozen at −20° C. for 60 min. The pellets are thawed on ice in 30 to 60 min and taken up to a total volume of 99 ml in buffer B (10 mM Tris acetate, pH 8.0, 20 mM Magnesium acetate, 1 mM DTT, 50.mM KCl). 1.5 ml portions of lysostaphin (0.8 mg/ml) in buffer B are introduced into 3 precooled centrifuge cups and each mixed with 33 ml of the cell suspension. The samples are incubated at 37° C., shaking occasionally, for 45 to 60 min, before 150 μl of a 0.5 M DTT solution are added. The lysed cells are centrifuged at 30 000×g and 4° C. for 30 min. The cell pellet is taken up in buffer B and then centrifuged again under the same conditions, and the collected supernatants are combined. The supernatants are centrifuged again under the same conditions, and 0.25 volume of buffer C (670 mM Tris acetate, pH 8.0, 20 mM Magnesium acetate, 7 mM Na3 phosphoenolpyruvate, 7 mM DTT, 5.5 mM ATP, 70 μM amino acids (complete from Promega), 75 μg of pyruvate kinase (Sigma, Germany)/ml are added to the upper ⅔ of the supernatant. The samples are incubated at 37° C. for 30 min. The supernatants are dialysed against 2 l of dialysis buffer (10 mM Tris acetate, pH 8.0, 14 mM Magnesium acetate, 1 mM DTT, 60 mM Potassium acetate) in a dialysis tube with a 3500 Da cut-off with one buffer change at 4° C. overnight. The dialysate is concentrated to a protein concentration of about 10 mg/ml by covering the dialysis tube with cold PEG 8000 powder (Sigma, Germany) at 4° C. The S30 extracts can be stored in aliquots at −70° C.
Determination of the IC50 in the S. aureus in vitro Transcription-Translation Assay Inhibition of protein biosynthesis of the compounds can be shown in an in vitro transcription-translation assay. The assay is based on the cell-free transcription and translation of firefly luciferase using the reporter plasmid pla as template and cell-free S30 extracts obtained from S. aureus. The activity of the resulting luciferase can be detected by luminescence measurement.
The amount of S30 extract or plasmid pla to be employed must be tested anew for each preparation in order to ensure an optimal concentration in the assay. 3 μl of the substance to be tested, dissolved in 5% DMSO, are introduced into an MTP. Then 10 μl of a suitably concentrated plasmid solution pla are added. […]

[4] = system: S. aureus E33; experiment: MIC, liquid dilution test in minimal medium (96-well microtitre plate); assay type: cell-based; details: Staphylococcus aureus, E33, read-out: MIC S. aureus E33
Method: as §1, §2, §3

[5] = system: E. faecium L4001; experiment: as above; assay type: cell-based; details: Enterococcus faecium, L4001, read-out: MIC E. faecium L4001
Method: as §1, §2, §3

[6] = system: S. aureus E33; experiment: MIC, alternative method: agar dilution test with 20% defibrinated horse blood; assay type: cell-based; details: Staphylococcus aureus
Method: (§4) Alternative Method for Determining the Minimum Inhibitory Concentration (MIC)
(§5) The minimum inhibitory concentration (MIC) is the minimum concentration of an antibiotic with which the growth of a test microbe is inhibited over 18-24 h. The inhibitor concentration can be determined by standard microbiological methods using modified medium in an agar dilution test (see, for example, the National Committee for Clinical Laboratory Standards. Methods for dilution antimicrobial susceptibility tests for bacteria that grow aerobically; approved standard-fifth edition. NCCLS document M7-A5 [ISBN 1-56238-394-9]. NCCLS, 940 West Valley Road, Suite 1400, Wayne, Pa. 19087-1898 USA, 2000). The bacterial microbes are cultivated on 1.5% agar plates containing 20% defibrinated horse blood. The test microbes, which are incubated on Columbia blood agar plates (Becton-Dickinson) overnight, are diluted in PBS, adjusted to a microbe count of about 5×10^5 microbes/ml and placed as drops (1-3 μl) on test plates. The test substances contain various dilutions of the test substances (1:2 dilution stages). The cultures are incubated at 37° C. in the presence of 5% CO2 for 18-24 hours.
(§6) The lowest concentration of each substance at which no visible bacterial growth occurs is defined as the MIC and is reported in μg/ml.

[7] = system: S. aureus T17; experiment: as above; assay type: cell-based; details: Staphylococcus aureus
Method: as §4, §5, §6

[8] = system: E. faecium L4001; experiment: as above; assay type: cell-based; details: Enterococcus faecium
Method: as §4, §5, §6

[9] = system: S. aureus RN4220Bi^R; experiment: MIC of the isolated resistant colony; assay type: cell-based; details: colony selected as strain RN4220Bi^R
Method: The S. aureus strain RN4220Bi^R is isolated in vitro. […] Whereas about 1×10^7 cells grow on the antibiotic-free plate, about 100 colonies grow on the antibiotic-containing plate, corresponding to a resistance rate of 1×10^−5. Some of the colonies grown on the antibiotic-containing plate are tested for the biphenomycin B MIC. One colony with an MIC of >50 μM is selected for further use, and the strain is referred to as RN4220Bi^R.

[10] = Staphylococcus aureus, T17, read-out: MIC S. aureus T17
[11] = E33, read-out: MIC S. aureus E33
[12] = T17, read-out: MIC S. aureus T17
[13] = L4001, read-out: MIC E. faecium L4001
[14] = E33, Table B, agar dilution, 20% defibrinated horse blood, read-out: MIC S. aureus E33
[15] = T17, Table B, agar dilution, 20% defibrinated horse blood, read-out: MIC S. aureus T17
[16] = L4001, Table B, agar dilution, 20% defibrinated horse blood, read-out: MIC E. faecium L4001

Compound	MIC [2, 10]	pIC50 ([3]; Table A)	MIC [4]	MIC [5]	MIC [6, 11]	MIC [7, 12]	MIC [8, 13]	pIC50 ([3]; Table B)	MIC [6, 14]	MIC [7, 15]	MIC [8, 16]	further results
CN1C(=O)[C@H](C[C@@H](O)CN)NC(=O)[C@@H](N)Cc2cc(ccc2O)-c2ccc(O)c(c2)C[C@H]1C(=O)NC1CCNCC1 [Example 2, (8S,11S,14S)-14-Amino-11-[(2R)-3-amino-2-hydroxypropyl]-5,17-dihydroxy-9-methyl-10,13-dioxo-N-piperidin-4-yl-9,12-diazatricyclo[14.3.1.1^2,6]henicosa-1(20),2(21),3,5,16,18-hexaene-8-carboxamide trihydrochloride]	6.3 µM	6.70	1.6 µM	25 µM	–	–	–	–	–	–	–	therapeutic effect ED100 [1]: 1.25 mg/kg
CN1C(=O)[C@H](CCCN)NC(=O)[C@@H](N)Cc2cc(ccc2O)-c2ccc(O)c(c2)C[C@H]1C(=O)NCCN [Example 3, (8S,11S,14S)-14-Amino-N-(2-aminoethyl)-11-(3-aminopropyl)-5,17-dihydroxy-9-methyl-10,13-dioxo-9,12-diazatricyclo[14.3.1.1^2,6]henicosa-1(20),2(21),3,5,16,18-hexaene-8-carboxamide trihydrochloride]	3.1 µM	6.46	1.6 µM	25 µM	2 µg/mL	4 µg/mL	16 µg/mL	6.46	–	–	–	–
NCCCNCCCNC(=O)[C@@H]1Cc2cc(ccc2O)-c2ccc(O)c(c2)C[C@H](N)C(=O)N[C@@H](CCCN)C(=O)N1 [Example 42, (8S,11S,14S)-14-amino-11-(3-aminopropyl)-N-{3-[(3-aminopropyl)amino]propyl}-5,17-dihydroxy-10,13-dioxo-9,12-diazatricyclo[14.3.1.1^2,6]henicosa-1(20),2(21),3,5,16,18-hexaene-8-carboxamide]	–	–	–	–	–	–	–	6.40	1 µg/mL (≈ 1.76 µM)	2 µg/mL (≈ 3.51 µM)	4 µg/mL (≈ 7.02 µM)	–
NCCC[C@@H]1NC(=O)[C@@H](N)Cc2cc(ccc2O)-c2ccc(O)c(c2)C[C@@H](C(=O)NCCN(CCN)CCN)NC1=O [Example 43, (8S,11S,14S)-14-amino-11-(3-aminopropyl)-N-{2-[bis(2-aminoethyl)amino]ethyl}-5,17-dihydroxy-10,13-dioxo-9,12-diazatricyclo[14.3.1.1^2,6]henicosa-1(20),2(21),3,5,16,18-hexaene-8-carboxamide]	–	–	–	–	–	–	–	6.82	1 µg/mL (≈ 1.71 µM)	2 µg/mL (≈ 3.42 µM)	16 µg/mL (≈ 27.4 µM)	–
NCCC[C@H](N)CNC(=O)[C@@H]1Cc2cc(ccc2O)-c2ccc(O)c(c2)C[C@H](N)C(=O)N[C@@H](CCCN)C(=O)N1 [Example 45, (8S,11S,14S)-14-amino-11-(3-aminopropyl)-N-[(2S)-2,5-diaminopentyl]-5,17-dihydroxy-10,13-dioxo-9,12-diazatricyclo[14.3.1.1 ^2,6]henicosa-1(20),2(21),3,5,16,18,-hexaene-8-carboxamide]	–	–	–	–	0.5 µg/mL (≈ 0.9 µM)	2 µg/mL (≈ 3.6 µM)	2 µg/mL (≈ 3.6 µM)	7.00	–	–	–	–
NC[C@H](O)C[C@@H]1NC(=O)[C@@H](N)Cc2cc(ccc2O)-c2ccc(O)c(c2)C[C@@H](C(=O)O)NC1=O [biphenomycin B, reference compound]	–	–	–	–	–	–	–	–	–	–	–	MIC ([2]; colony selected as strain T17, isolated from kidney of treated mice): > 50 µM; MIC [9]: > 50 µM
